We go through two substances from US20250361469A1, “Lymph Node on a Chip Device and Method” (New York University, priority 2024, published 2025).

Test [1] relates to DCs and T cells in LN chip. Description: OVA I model antigen initiating adaptive immune process in the LN chip. It is filed as cell-based, human.
For a further test, the system named is DCs and FRCs. Description: CCL19 and CCL21 secretion by DCs and FRCs in paracortical area of LN chip under TNF-α (ELISA). It is filed as cell-based, human. The conditions noted are these: inflammatory conditions affected by TNF-α.

For “Ovalbimin [OVA I, model antigen (Sigma Aldrich) to initiate the adaptive immune process in the LN chip]”, the “DC maturation (imDCs to mDCs)” value in test [1] (OVA I as model antigen in LN chip) is recorded as “transformed into mDCs”. Also, in test [1] (OVA I-induced mDCs vs imDCs), the T cell activation entry is “enhanced”, the T cell migration result is on record as “enhanced” and the T cell proliferation result is listed as “enhanced”.

For the substance TNF-α, in the test with DCs and FRCs, the “secretion of CCL19 by DCs and FRCs” value is reported as “increases”; the “secretion of CCL21 by DCs and FRCs” value is listed as “increases”.
